Measurements reported in US20060069132A1, “Azolecarboxamide herbicides” (priority 2004, published 2006).

Experiments:
lambsquarters = assay: Test C pre-/postemergence herbicide test; type: in vivo, Chenopodium album; details: for Lambsquarters plant response rating: 500 g ai/ha
Procedure, shortened: (§1)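 Seeds were planted and sprayed preemergence with test chemicals in a non-phytotoxic solvent mixture containing surfactant; postemergence treatments went onto plants 2 to 18 cm tall (1- to 4-leaf stage). After 12 to 14 days in a greenhouse, injury was rated visually against untreated controls on a 0–100 scale.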

redroot pigweed = assay: Test A pre-/postemergence herbicide test; type: in vivo, Amaranthus retroflexus
Procedure, shortened: (§2)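 Seeds sown in sandy loam received a preemergence directed soil spray of compound in non-phytotoxic solvent with surfactant; postemergence plants (2–10 cm, one- to two-leaf stage) were sprayed to runoff at the same time. After ~10 days in greenhouse, injury was rated visually versus untreated controls (0 = no effect, 100 = complete control).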

kochia = assay: Test C pre-/postemergence herbicide test; type: in vivo, Kochia scoparia; details: for Kochia plant response rating: 500 g ai/ha
Procedure, shortened: as §1

giant foxtail = assay: Test A pre-/postemergence herbicide test; type: in vivo, Setaria faberi
Procedure, shortened: as §2

bermudagrass = assay: Test C pre-/postemergence herbicide test; type: in vivo, Cynodon dactylon
Procedure, shortened: as §1

goosegrass = assay: Test C pre-/postemergence herbicide test; type: in vivo, Eleusine indica; details: for Goosegrass plant response rating: 500 g ai/ha
Procedure, shortened: as §1

morningglory = assay: Test C pre-/postemergence herbicide test; type: in vivo, Ipomoea coccinea; parameters: key to Plant response rating, Morningglory: 0 = no effect, 100 = complete control; details: for Morningglory plant response rating: 500 g ai/ha
Procedure, shortened: as §1

barnyardgrass = assay: Test A pre-/postemergence herbicide test; type: in vivo, Echinochloa crus-galli
Procedure, shortened: as §2

woolly cupgrass = assay: Test C pre-/postemergence herbicide test; type: in vivo, Eriochloa villosa; details: for Cupgrass, Woolly plant response rating: 500 g ai/ha
Procedure, shortened: as §1

cocklebur = assay: Test C pre-/postemergence herbicide test; type: in vivo, Xanthium strumarium; details: for Cocklebur plant response rating: 500 g ai/ha
Procedure, shortened: as §1

[1] = 31 g ai/ha, preemergence, scale 0 to 100
[2] = 125 g ai/ha, scale 0 (no effect) to 100 (complete control), visual, 12 to 14 days, preemergence
[3] = 250 g ai/ha, scale 0 to 100 (0 no effect, 100 complete control), visual, 12 to 14 days, preemergence
[4] = Postemergence, 500 g ai/ha, 0 to 100 scale, 0 no effect, 100 complete control
[5] = Postemergence, 2000 g ai/ha, 0 to 100 scale, 0 no effect, 100 complete control
[6] = Preemergence, 500 g ai/ha, visual rating, 0 to 100 scale (0 no effect, 100 complete control)
[7] = Preemergence, 2000 g ai/ha, 0 to 100 scale, 0 no effect, 100 complete control
[8] = Postemergence, 250 g ai/ha, scale 0 to 100, 0 no effect, 100 complete control
[9] = postemergence, 125 g ai/ha, scale 0 to 100
[10] = postemergence, 62 g ai/ha, scale 0 to 100
[11] = postemergence, 31 g ai/ha, scale 0 to 100

CCCCn1nc(C(C)(C)C)cc1C(=O)Nc1cccc(C(=O)NCC)c1 [Compound 41]
70: Foxtail, Giant plant response rating (giant foxtail; [7])
50: Plant response rating (0 = no effect, 100 = complete control), Lambsquarters (lambsquarters; 62 g ai/ha, preemergence) | Plant response rating, Bermudagrass (bermudagrass; [2])
75: Barnyardgrass plant response rating (barnyardgrass; [7])
60: Plant response rating, Pigweed (redroot pigweed; [5]) | Plant response rating, Barnyardgrass (barnyardgrass; [5])
90: Plant response rating, Lambsquarters (lambsquarters; [2])
20: Plant response rating (0 = no effect, 100 = complete control), Kochia (kochia; 62 g ai/ha, preemergence) | Plant response rating, Kochia (kochia; [2]) | Plant response rating, Foxtail, Giant (giant foxtail; [4]) | Plant response rating (0 = no effect, 100 = complete control), Goosegrass (goosegrass; 62 g ai/ha, preemergence) | Plant response rating, Morningglory (morningglory; [3])
85: Pigweed plant response rating (redroot pigweed; [7])
40: Plant response rating, Pigweed (redroot pigweed; [4]) | Plant response rating, Goosegrass (goosegrass; [3]) | Barnyardgrass plant response rating (barnyardgrass; [6])
35: Plant response rating, Foxtail, Giant (giant foxtail; [5])
10: Plant response rating, Goosegrass (goosegrass; [1]) | Plant response rating, Cocklebur (cocklebur; [3])
65: Pigweed plant response rating (redroot pigweed; [6])
30: Plant response rating, Kochia (kochia; [3]) | Foxtail, Giant plant response rating (giant foxtail; [6]) | Plant response rating, Bermudagrass (bermudagrass; [1]) | Plant response rating (0 = no effect, 100 = complete control), Bermudagrass (bermudagrass; 62 g ai/ha, preemergence) | Plant response rating, Goosegrass (goosegrass; [2]) | Plant response rating, Barnyardgrass (barnyardgrass; [4]) | Plant response rating, Cupgrass, Woolly (woolly cupgrass; [3])
100: Plant response rating, Lambsquarters (lambsquarters; [3]) | Plant response rating, Bermudagrass (bermudagrass; [3])
0: Plant response rating, Lambsquarters (lambsquarters; [1]) | Plant response rating, Kochia (kochia; [1]) | Plant response rating, Morningglory (morningglory; [1]) | Plant response rating (0 = no effect, 100 = complete control), Morningglory (morningglory; 62 g ai/ha, preemergence) | Plant response rating, Morningglory (morningglory; [2]) | Plant response rating, Cupgrass, Woolly (woolly cupgrass; [1]) | Plant response rating (0 = no effect, 100 = complete control), Cupgrass, Woolly (woolly cupgrass; 62 g ai/ha, preemergence) | Plant response rating, Cupgrass, Woolly (woolly cupgrass; [2]) | Plant response rating, Cocklebur (cocklebur; [1]) | Plant response rating (0 = no effect, 100 = complete control), Cocklebur (cocklebur; 62 g ai/ha, preemergence) | Plant response rating, Cocklebur (cocklebur; [2])

CCn1nc(C(C)(C)C)cc1C(=O)Nc1ccc(F)c(C(=O)NCCF)c1 [Compound 60]
85: Plant response rating, Goosegrass (goosegrass; [2]) | Barnyardgrass plant response rating (barnyardgrass; [7])
95: Plant response rating, Pigweed (redroot pigweed; [5]) | Pigweed plant response rating (redroot pigweed; [6]) | Plant response rating, Goosegrass (goosegrass; [3])
100: Plant response rating (0 = no effect, 100 = complete control), Lambsquarters (lambsquarters; 62 g ai/ha, preemergence) | Plant response rating, Lambsquarters (lambsquarters; [2]) | Plant response rating, Lambsquarters (lambsquarters; [3]) | Pigweed plant response rating (redroot pigweed; [7]) | Plant response rating, Bermudagrass (bermudagrass; [2]) | Plant response rating, Bermudagrass (bermudagrass; [3])
60: Plant response rating, Foxtail, Giant (giant foxtail; [5])
5: Bermudagrass plant response rating (bermudagrass; Postemergence, 250 g ai/ha, scale 0 to 100) | Plant response rating, Goosegrass (goosegrass; [8]) | Plant response rating, Morningglory (morningglory; [2]) | Plant response rating, Cupgrass, Woolly (woolly cupgrass; [8]) | Plant response rating, Cupgrass, Woolly (woolly cupgrass; [9]) | Plant response rating, Cocklebur (cocklebur; [3])
40: Plant response rating, Pigweed (redroot pigweed; [4])
35: Plant response rating, Barnyardgrass (barnyardgrass; [4])
70: Plant response rating, Lambsquarters (lambsquarters; [8]) | Plant response rating, Barnyardgrass (barnyardgrass; [5]) | Plant response rating, Cupgrass, Woolly (woolly cupgrass; [3])
50: Barnyardgrass plant response rating (barnyardgrass; [6])
80: Plant response rating, Kochia (kochia; [1]) | Plant response rating (0 = no effect, 100 = complete control), Kochia (kochia; 62 g ai/ha, preemergence) | Plant response rating (0 = no effect, 100 = complete control), Bermudagrass (bermudagrass; 62 g ai/ha, preemergence)
0: Plant response rating, Bermudagrass (bermudagrass; [9]) | Plant response rating, Bermudagrass (bermudagrass; [11]) | Plant response rating, Bermudagrass (bermudagrass; [10]) | Plant response rating, Goosegrass (goosegrass; [9]) | Plant response rating, Goosegrass (goosegrass; [10]) | Plant response rating, Morningglory (morningglory; [1]) | Plant response rating (0 = no effect, 100 = complete control), Morningglory (morningglory; 62 g ai/ha, preemergence) | Plant response rating, Cupgrass, Woolly (woolly cupgrass; [1]) | Plant response rating (0 = no effect, 100 = complete control), Cupgrass, Woolly (woolly cupgrass; 62 g ai/ha, preemergence) | Plant response rating, Cupgrass, Woolly (woolly cupgrass; [10]) | Plant response rating, Cocklebur (cocklebur; [1]) | Plant response rating (0 = no effect, 100 = complete control), Cocklebur (cocklebur; 62 g ai/ha, preemergence) | Plant response rating, Cocklebur (cocklebur; [2])
10: Plant response rating, Lambsquarters (lambsquarters; [10]) | Plant response rating, Kochia (kochia; [10]) | Plant response rating, Goosegrass (goosegrass; [1]) | Plant response rating, Morningglory (morningglory; [3]) | Plant response rating, Morningglory (morningglory; [8]) | Plant response rating, Morningglory (morningglory; [9]) | Plant response rating, Morningglory (morningglory; [10]) | Plant response rating, Cupgrass, Woolly (woolly cupgrass; [2]) | Plant response rating, Cocklebur (cocklebur; [8]) | Plant response rating, Cocklebur (cocklebur; [9]) | Plant response rating, Cocklebur (cocklebur; [11]) | Plant response rating, Cocklebur (cocklebur; [10])
30: Plant response rating, Lambsquarters (lambsquarters; [9]) | Plant response rating, Foxtail, Giant (giant foxtail; [4]) | Plant response rating, Bermudagrass (bermudagrass; [1])
55: Foxtail, Giant plant response rating (giant foxtail; [6]) | Plant response rating (0 = no effect, 100 = complete control), Goosegrass (goosegrass; 62 g ai/ha, preemergence)
20: Plant response rating, Kochia (kochia; [8]) | Plant response rating, Kochia (kochia; [9])
90: Plant response rating, Lambsquarters (lambsquarters; [1]) | Plant response rating, Kochia (kochia; [2]) | Plant response rating, Kochia (kochia; [3]) | Foxtail, Giant plant response rating (giant foxtail; [7])

C#CCOC(=O)c1cccc(NC(=O)c2cc(C(C)(C)C)nn2CC)c1 [Compound 84]
50: Lambsquarters plant response rating (lambsquarters; Postemergence, scale 0 to 100) | Pigweed plant response rating (redroot pigweed; [4])
10: Plant response rating, Kochia (kochia; [8]) | Plant response rating, Foxtail, Giant (giant foxtail; [5]) | Goosegrass plant response rating (goosegrass; Postemergence, scale 0 to 100) | Plant response rating, Barnyardgrass (barnyardgrass; [5])
80: Kochia plant response rating (kochia; Postemergence, scale 0 to 100)
5: Plant response rating, Goosegrass (goosegrass; [8])
0: Plant response rating, Lambsquarters (lambsquarters; [8]) | Plant response rating, Lambsquarters (lambsquarters; [9]) | Plant response rating, Lambsquarters (lambsquarters; [10]) | Pigweed plant response rating (redroot pigweed; [6]) | Pigweed plant response rating (redroot pigweed; [7]) | Plant response rating, Kochia (kochia; [9]) | Plant response rating, Kochia (kochia; [10]) | Foxtail, Giant plant response rating (giant foxtail; [6]) | Foxtail, Giant plant response rating (giant foxtail; [7]) | Plant response rating, Bermudagrass (bermudagrass; [8]) | Plant response rating, Goosegrass (goosegrass; [9]) | Plant response rating, Goosegrass (goosegrass; [10]) | Morningglory plant response rating (morningglory; Postemergence, scale 0 to 100) | Plant response rating, Morningglory (morningglory; [8]) | Plant response rating, Morningglory (morningglory; [9]) | Plant response rating, Morningglory (morningglory; [10]) | Barnyardgrass plant response rating (barnyardgrass; [6]) | Barnyardgrass plant response rating (barnyardgrass; [7]) | Cupgrass, Woolly plant response rating (woolly cupgrass; Postemergence, scale 0 to 100) | Plant response rating, Cupgrass, Woolly (woolly cupgrass; [8]) | Plant response rating, Cupgrass, Woolly (woolly cupgrass; [9]) | Plant response rating, Cupgrass, Woolly (woolly cupgrass; [10]) | Cocklebur plant response rating (cocklebur; Postemergence, scale 0 to 100) | Plant response rating, Cocklebur (cocklebur; [8]) | Plant response rating, Cocklebur (cocklebur; [9]) | Plant response rating, Cocklebur (cocklebur; [10])
45: Plant response rating, Pigweed (redroot pigweed; [5])
15: Foxtail, Giant plant response rating (giant foxtail; [4]) | Barnyardgrass plant response rating (barnyardgrass; [4])

C=CCOC(=O)c1cccc(NC(=O)c2cc(C(C)(C)C)nn2CC)c1 [Compound 85]
85: Cupgrass, Woolly plant response rating (woolly cupgrass; Postemergence, scale 0 to 100)
30: Plant response rating, Lambsquarters (lambsquarters; [9]) | Plant response rating, Foxtail, Giant (giant foxtail; [5])
65: Plant response rating, Bermudagrass (bermudagrass; [9])
100: Lambsquarters plant response rating (lambsquarters; Postemergence, scale 0 to 100) | Cocklebur plant response rating (cocklebur; Postemergence, scale 0 to 100) | Plant response rating, Cocklebur (cocklebur; [8])
80: Morningglory plant response rating (morningglory; Postemergence, scale 0 to 100) | Plant response rating, Cupgrass, Woolly (woolly cupgrass; [8]) | Plant response rating, Cocklebur (cocklebur; [9])
70: Plant response rating, Pigweed (redroot pigweed; [5]) | Bermudagrass plant response rating (bermudagrass; Postemergence, 500 g ai/ha, scale 0 to 100)
75: Pigweed plant response rating (redroot pigweed; [4])
35: Plant response rating, Goosegrass (goosegrass; [10])
40: Plant response rating, Goosegrass (goosegrass; [9]) | Plant response rating, Morningglory (morningglory; [9]) | Plant response rating, Cupgrass, Woolly (woolly cupgrass; [10])
60: Plant response rating, Kochia (kochia; [9]) | Goosegrass plant response rating (goosegrass; Postemergence, scale 0 to 100) | Plant response rating, Goosegrass (goosegrass; [8]) | Plant response rating, Morningglory (morningglory; [8])
50: Plant response rating, Lambsquarters (lambsquarters; [8]) | Plant response rating, Cupgrass, Woolly (woolly cupgrass; [9])
10: Plant response rating, Lambsquarters (lambsquarters; [10]) | Plant response rating, Morningglory (morningglory; [10])
0: Pigweed plant response rating (redroot pigweed; [6]) | Foxtail, Giant plant response rating (giant foxtail; [6]) | Foxtail, Giant plant response rating (giant foxtail; [7]) | Plant response rating, Bermudagrass (bermudagrass; [10]) | Barnyardgrass plant response rating (barnyardgrass; [6]) | Barnyardgrass plant response rating (barnyardgrass; [7])
25: Plant response rating, Barnyardgrass (barnyardgrass; [5])
5: Pigweed plant response rating (redroot pigweed; [7])
90: Kochia plant response rating (kochia; Postemergence, scale 0 to 100) | Plant response rating, Kochia (kochia; [8])
20: Plant response rating, Kochia (kochia; [10]) | Foxtail, Giant plant response rating (giant foxtail; [4]) | Barnyardgrass plant response rating (barnyardgrass; [4]) | Plant response rating, Cocklebur (cocklebur; [10])
